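Step 1: Grow cells in 96-well plates. Step 2: Expose to compound for 48 hours at 5 concentrations. Step 3: Interpolate endpoints linearly; if unreached, use highest concentration. GI50 marks 50% less growth. TGI: concentration producing complete growth inhibition.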
Key:
Assay in all cases: NCI-60 cell line screen, 48 h
MDA-MB-435 = test system: MDA-MB-435
CAKI-1 renal = test system: CAKI-1 renal
RXF 393 renal = test system: RXF 393 renal
SF-539 CNS = test system: SF-539 CNS
A498 renal = test system: A498 renal
SN12C renal = test system: SN12C renal
SR leukemia = test system: SR leukemia
OVCAR-8 ovarian = test system: OVCAR-8 ovarian
CCRF-CEM leukemia = test system: CCRF-CEM leukemia
EKVX NSCLC = test system: EKVX NSCLC

Row | SMILES | GI50 (MDA-MB-435) [µM] | TGI (MDA-MB-435) [µM] | GI50 (CAKI-1 renal) [µM] | TGI (CAKI-1 renal) [µM] | GI50 (RXF 393 renal) [µM] | TGI (RXF 393 renal) [µM] | GI50 (SF-539 CNS) [µM] | TGI (SF-539 CNS) [µM] | GI50 (A498 renal) [µM] | TGI (A498 renal) [µM] | GI50 (SN12C renal) [µM] | TGI (SN12C renal) [µM] | GI50 (SR leukemia) [µM] | TGI (SR leukemia) [µM] | GI50 (OVCAR-8 ovarian) [µM] | TGI (OVCAR-8 ovarian) [µM] | GI50 (CCRF-CEM leukemia) [µM] | TGI (CCRF-CEM leukemia) [µM] | GI50 (EKVX NSCLC) [µM] | TGI (EKVX NSCLC) [µM]
1 | COc1cc2c3c(cccc3c1)C(=O)N(CCN1CCCC1)C2=O | 2.81 | 8.25 | 2.56 | > 100 | 1.41 | 3.54 | 1.98 | 5.14 | 1.96 | 3.69 | 2.41 | 78.5 | 1.47 | > 100 | 1.66 | > 100 | 2.86 | > 100 |  | 
2 | Cc1nn(-c2ccc(F)cc2)c2ncnc(Nc3ccc(NC(=O)Nc4ccc(Cl)c(C(F)(F)F)c4)cc3)c12 | 3.26 | 12.6 | 1.83 | 4.75 | 1.86 | 5.98 | 1.46 | 3.08 | 2.6 | 7.93 | 2.07 | 5.56 | 3.07 | 40.5 | 2.87 | 10 | 1.57 | 13.2 | 2.78 | 10.8
3 | CC(=O)OCC1OC(O[C@@H]2C[C@H]3C(C)(C)[C@H](OC(C)=O)CC[C@]3(C)[C@H]3CCC4=C([C@@H](C)C[C@@H](O)[C@H](O)C(C)(C)O)CC[C@@]4(C)[C@@]32C)C(O)C(O)C1O (stereo partly specified) | 16 | 29.5 | 15.6 | 28.9 | 14.8 | 28 |  |  | 17.2 | 31.1 | 16.4 | 30 | 12.2 | 27.8 | 15.9 | 29.6 | 15.9 | 34.1 | 16.9 | 31
4 | C#Cc1cnc(=O)n(C2CC(O)C(CO)O2)c1 (stereo unspecified) | > 100 | > 100 | > 62.2 | > 100 | > 100 | > 100 | > 100 | > 100 | > 100 | > 100 | > 100 | > 100 | 91.5 | > 100 | > 100 | > 100 | 13.5 | > 32.8 | > 100 | > 100
5 | COc1cc2ncn(-c3cc(OCc4ccccc4Cl)c(C(N)=O)s3)c2cc1OC | 0.0745 | 0.351 | 3.02 | > 25 | 0.102 | 4.22 | 0.249 | 4.31 | 0.117 | 3.21 | 1.48 | > 25 | 0.113 | > 25 | 0.23 | > 20.7 | 0.0781 | > 10.6 | 1.25 | > 25
6 | COc1cc(C(=O)NC2c3ccccc3-c3ccccc32)c(N)cc1OCc1ccccc1 | > 100 | > 100 | 16.1 | 63.8 | 13.5 | 34.7 | 11.8 | 28.3 | 37 | > 100 | 11.4 | 48.9 | 98.6 | > 100 | 24.2 | > 100 | > 100 | > 100 | 5.28 | 45
7 | CC(CO)(CO)N=Cc1cc(I)cc(I)c1O |  | 40.3 |  | 68.2 |  | 26.5 |  | 31.3 |  | 65.4 |  | 31.4 |  | 54.1 |  | 48.5 |  | 44.5 |  | 54.2
8 | O=C(NNc1nc2c(F)cccc2n2cccc12)c1cnccn1 | 0.821 | 26.3 | 0.628 | 16.4 | 0.986 | 7.29 | 0.487 | 14.5 | 2.18 | 10.3 | 0.602 | 31.7 | 0.392 | > 37.7 | 0.414 | > 81.6 | 0.126 |  | 0.421 | 30
9 | NC(CO)Cc1cnc[nH]1 (stereo unspecified) | > 100 | > 100 |  | > 100 |  | > 10 | > 100 | > 100 | > 100 | > 100 | > 100 | > 100 | > 100 | > 100 | > 100 | > 100 | > 100 | > 100 | > 100 | > 100
10 | CC1(C)N=C(N)N=C(N)N1c1ccc(CCCCc2ccc(S(=O)(=O)F)cc2)cc1 | 0.506 | 17 | 3.7 | > 100 | 0.79 | > 100 | 0.458 | 11.6 | 3.81 | 87.6 | 1.2 | 17.7 | 0.58 | 25.8 | 1.47 | 28.6 | 0.561 | 19.7 |  | 
11 | NC(N)=N/N=C(/c1ccccc1)c1ccc(F)cc1 | 0.203 | 0.834 | 0.404 | 16.1 | 0.291 | 3.54 | 0.271 | 0.902 | 0.299 | 3.28 | 0.817 | 22.2 | 0.286 | 6.11 | 0.593 | > 35.1 | 0.493 | > 74.6 | 0.65 | 36.5
12 | CN(C)CC(=O)N1CCC(c2ccc(NC(=O)c3ncc(C#N)[nH]3)c(C3=CCCCC3)c2)CC1 | 2.99 | 12.6 | 3.52 | 16.1 | 3.25 | 14.2 | 3.5 | 15 | 9.71 | 22.4 | 2.74 | 16.9 | 2.58 | 6.52 | 8.34 | 24 | 7.26 | 28.5 | 14.1 | 28
13 | Cc1cc2nc3c4cc(Cl)ccc4n(CCN(C)C)c3nc2cc1C | 1.69 | 3.19 | 1.06 | 2.8 | 1.59 | 3.32 | 1.55 | 2.94 | 1.29 | 2.63 | 1.61 | 8.45 | 0.682 | 2.88 | 1.4 | 6.33 | 1.22 | 4.63 | 2.45 | 6.77

Reference: PubChem BioAssay (NCI)
